According to paper PMC5835390 (Chemical communications (Cambridge, England), 2018):

How the values were obtained:
[1] = chromatographic, C18 column, same gradient; cited from earlier work
carboxypeptidase = assay: Carboxypeptidase treatment of albusnodin; format: in vitro ADME; conditions: reports on threaded state, Fig. S9

Substance	HPLC elution time (used as indication of polarity) [1]	Resistance to carboxypeptidase cleavage (carboxypeptidase)
astexin-3	around 14 minutes	–
albusnodin	–	resistant to carboxypeptidase cleavage
astexin-2	around 14 minutes	–
astexin-1	around 14 minutes	–
microcin J25 (GGAGHVPEYFVGIGTPISFYG; not fully specified; Microcin J25 lasso peptide; UniProt Q9X2V7 38-58, looked up)	around 17 minutes	–
